In data set [1] the test system is Candida albicans (SC5341). The data set can be described thus: FITC uptake assay (membrane permeabilization). In kind it is cell-based. The conditions noted are these: C. albicans 2 × 10^7 cells per ml, 10 mM sodium phosphate buffer pH 7.4, 250 μg/ml peptide, 6 h at 30°C; no-peptide control 1%. Here is the method:
This assay was adapted from a previously reported method ([53]). Candida albicans (SC5341) cells were suspended (2 × 10^7 cells per ml) in 10 mM sodium phosphate buffer (pH 7.4) and treated with each of the peptides for 6 h at 30°C. Samples were then incubated with 6 μg/ml FITC (the stock solution is 10 mg/ml in acetone) plus 10 mM sodium phosphate buffer at 30°C for 30 min. A 10-μl volume of each sample was plated on an individual glass slide, and the slides were then washed with 10 mM sodium phosphate buffer thrice and examined using an Eclipse E600 fluorescence microscope (Nikon, Japan). The results presented are representative of three independent experiments.

Data set [2] has as its system E. coli bacteria (ATCC 25922). The data set can be described thus: Bacterial kinetic growth inhibition analysis, E. coli. Type of data set: cell-based, Escherichia coli. On the procedure:
Each of the peptides was diluted by serial 2-fold dilutions in M9 minimal media in Corning (3879) 96-well plates (Sigma-Aldrich, Israel). E. coli bacteria (ATCC 25922) were grown overnight in M9 minimal media and diluted 1,000-fold in M9 media and grown for 5 h at 37°C. In Corning (3596) 96-well plates, 75-μl volumes of the serial 2-fold dilutions of each test compound were added to 75 μl of growth medium containing bacteria (5 × 10̂^6 CFU/ml). Bacteria and test compounds were incubated overnight at 37°C, and kinetic growth inhibition was determined by measurements of optical density at 600 nm using a Biotek Synergy HT microplate reader.

Another data set relates to S. epidermidis. The data set can be described thus: Bacterial kinetic growth inhibition analysis, S. epidermidis. Type of data set: cell-based, Staphylococcus epidermidis.
Data set [3] in a line: Self-assembly observed by transmission electron microscopy. Type of data set: physicochemical. The conditions noted are these: 1 mg/ml in water, heated 50 min at 90°C, cooled gradually to 25°C overnight; negative stain TEM. Here is the method: Lyophilized powders of each of the peptides (Genscript Biotech, USA) were dissolved in ultrapure water (BioInd, Israel) to a concentration of 1 mg/ml and heated for 50 min at 90°C, allowing the peptides to reach the monomeric state, and were then allowed to cool gradually to 25°C overnight. This treatment facilitated the self-assembly and nanostructure formation of L7F but not dhvar2.
TEM imaging was performed by applying 10-μl samples to 400-mesh copper grids covered by a carbon-stabilized Formvar film (SPI, West Chester, PA, USA). The samples were allowed to adsorb for 2 min before excess fluid was blotted off. Negative staining was then achieved by depositing 10 μl of 2% uranyl acetate on the grid for 2 min before blotting off excess fluid. Micrographs were obtained using a Tecnai 12 electron microscope (FEI, Tokyo, Japan) operating at 120 kV.

A short description of data set [4]: Lipid/PDA vesicle fluorescent chromatic response, DOPC-containing model membrane. Particulars: DOPC/DMPG/ErgS/PDA SUVs; peptide 1 mg/ml stock, Tris-base buffer pH 8.0, 27°C, %FCR. On the procedure: (§1) Vesicles containing the diacetylene monomer 10,12-tricosadiynoic acid (TRCDA) and the lipid and ergosterol components DOPC/DMPG/ErgS/PDA and DOPE/DMPG/ErgS/PDA (1:0.6:0.4:3) were dissolved in chloroform/ethanol (1:1) and dried together in vacuo to reach a constant weight, followed by addition of deionized water to reach a final concentration of 1 mM, and were subsequently subjected to probe sonication at 40 W at 70°C for 3 min. The vesicle solution was subsequently cooled at room temperature and kept at 4°C overnight. The solution was then irradiated at 254 nm for 30s, resulting in intense blue color appearance due to polymerization of the diacethylene units.
(§2) Fluorescence was measured on a Fluscan Ascent microplate reader using a 96-well microplate (Grainer), excitation at 485 nm and emission at 555 nm, and long-pass (LP) filters with normal slits. The background fluorescence from the vesicles alone was negligible. Samples were prepared for fluorescence measurements by adding 30 μl of each of the peptides at 1 mg/ml to 30 μl of lipid/PDA vesicles followed by addition of 30 μl 50 mM Tris-base buffer (pH = 8.0). The samples were incubated at 27°C during the measurements. […]

A short description of data set [5]: Lipid/PDA vesicle fluorescent chromatic response, DOPE-containing model membrane. The conditions noted are these: DOPE/DMPG/ErgS/PDA SUVs; peptide 1 mg/ml stock, Tris-base buffer pH 8.0, 27°C, %FCR. Here is the method:
as §1, §2

The mark [6] stands for this setting: kinetic growth inhibition, OD600.

Experimental findings from paper PMC7113582, “Peptide Self-Assembly Is Linked to Antibacterial, but Not Antifungal, Activity of Histatin 5 Derivatives” (mSphere, 2020) are described below.

With “KRLFKEFLFSLRKY [L7F, single-amino-acid mutation L7F of dhvar2 (…), self-assembling derivative]”, in data set [1], the “FITC positive fluorescence (membrane permeabilization)” value is 95%. Further, the “antibacterial activity, fold more active than dhvar2” value in data set [2] (setting [6]) is listed as 4 fold; in the data set on S. epidermidis (setting [6]), 2 fold. The “peptide concentration that completely inhibited growth” value worked out at 125 µg/mL in data set [2] (serial 2-fold dilutions, 37°C, OD600, representative of three experiments) and 250 µg/mL with S. epidermidis (serial 2-fold dilutions, OD600, representative of three experiments). Further, the “self-assembly / morphology of assemblies (TEM)” value in data set [3] is given as “long, unbranched nanoassemblies”.

Consider “KRLFKELLFSLRKY [dhvar2, well-characterized histatin 5 derivative, …, reference compound]”, for which, in data set [1], the “FITC positive fluorescence (membrane permeabilization)” value amounted to 95%. For the same sequence, in data set [4], the “colorimetric response, fold lower than that to L7F” value is reported as 2 fold. Further, in data set [5], the “fluorescent chromatic response, fold lower than that to L7F” value came out at 2 fold. Moreover, the “self-assembly / morphology of assemblies (TEM)” value in data set [3] is listed as “no ordered assemblies”.
